# Measured values published in patent US20260166021A1, “POLYMORPHIC FORMS OF A SOLUBLE EPOXIDE HYDROLASE INHIBITOR AND FORMULATIONS THEREOF” (EicOsis, LLC, priority 2022, published 2026).
# Experiments:
# Assay type in all cases: physicochemical
# [1] = Differential scanning calorimetry (DSC): heat of fusion, thermal events
# Procedure: Differential scanning calorimetry analyses were performed on each sample “as is.” Unless otherwise specified, samples were weighed in an aluminum pan, covered with a pierced lid, and then crimped and analyzed from 30-300° C. ramped at 10° C./min.
# The DSC data were used to determine the heat of fusion for Forms A, B, D, and F, based on their heats of fusion as measured during conversion from Form C.
# [2] = Thermal stress studies at 60° C. (XRD, HPLC); details: HPLC
# Procedure: Briefly, 20 mg of solid Form A, B, C, D, E, F, G, and I were weighed into 7 mL glass vials. The vials were covered with tissue and stored in ovens set to 60° C. and ambient pressure. Following 1 and 7 days incubation, solid was collected for XRD analysis.
# As shown in these figures, Forms B and C converted to Forms D and A, respectively, while the other forms remained unchanged.
# The starting materials, intermediates (1 day of thermal stress), and products (7 days of thermal stress) were analyzed by H PLC. Representative chromatograms from the Form D thermal stress analyses are shown in FIGS. 81-83 (starting material, 1 day, and 7 day samples, respectively).
# [3] = Excipient stability analyses (HPLC impurities)
# Procedure: For the excipient stability analyses, approximately 10-20 mg Form D was incubated in PEG400, propylene glycol, D-a-Tocopherol polyethylene glycol 1000 succinate (Vitamin E TPGS), Gelucire® 44/14, hydrogenated castor oil, glyceryl caprylate/caprate(Capmul® MCM), ethoxylated solubilizers (Kolliphor® HS 15, Kolliphor® EL), nonionic surfactant (Labrasol), and diethylene glycol monoethyl ether (Transcutol® HP).
# [4] = PEG-stability analyses: Form C/Form D mixture slurried in PEG300 with water; details: 1:1 mixture of Forms C and D slurried in PEG300; XRD
# Procedure: Of particular interest was whether Form D would convert to a hydrate (e.g., Form C) in the presence of water. To investigate the critical water concentration for phase interconversion between Pattern C and D, a series experiments were designed (as summarized in TABLE 16). A 1:1 mixture of Forms C and D was prepared and slurried in PEG 300 with different levels of water concentrations. Phase transformations were monitored with XRD, and are summarized in FIG. 85, which (from top to bottom) provides XRD of Form C, Form D, the mixture following incubation in PEG300 containing 75% water, the mixture following incubation in PEG300 containing 50% water, the mixture following incubation in PEG300 containing 25% water, the mixture following incubation in PEG300 containing 10% water, and the mixture following incubation in PEG300 containing 5% water. […] Form D is the stable form in PEG300 with less than 50% water.
# [5] = 50° C., Castor Oil, hydrogenated
# [6] = Room Temperature, Capmul MCM, EP
# [7] = Room Temperature, Capmul MCM, NF
# [8] = Room Temperature, Castor Oil, hydrogenated*
# [9] = Room Temperature, Gelucire 44/14
# [10] = Room Temperature, Kolliphor HS-15
# [11] = Room Temperature, Propylene glycol
# [12] = Room Temperature, Vitamin E TPGS
structure (smiles),measurement,setting,value
"CC[C@H](C)C(=O)N1CCC(NC(=O)Nc2ccc(OC(F)(F)F)c(F)c2)CC1 [Form D, (S)-1-(3-fluoro-4-(trifluoromethoxy)phenyl)-3-(1-(2-methylbutanoyl)piperidin-4-yl)urea]","DSC Thermal Events, Endo: melting of pattern D",[1],143 °C melting of pattern D
same,"stability rank among Forms A, B, D and F","[1]; DSC, TABLE 10",highest stability
same,thermodynamic stability (from heat of fusion),"[1]; DSC, TABLE 10",thermodynamically stable
same,Heat of fusion,"[1]; DSC, scaled-up polymorphs, measured during conversion from Form C",67.51
same,Day 1 % AUC,[2]; 60° C.,100%
same,Day 7 % AUC,[2]; 60° C.,100%
same,Initial % AUC,[2]; before thermal stress,100%
same,"Impurity, % (Day 1)","[3]; 50° C., Capmul MCM, EP",None
same,"Impurity, % (Day 3)","[3]; 50° C., Capmul MCM, EP",None
same,"Impurity, % (Day 1)","[3]; 50° C., Capmul MCM, NF",None
same,"Impurity, % (Day 3)","[3]; 50° C., Capmul MCM, NF",None
same,"Impurity, % (Day 1)",[3]; [5],None
same,"Impurity, % (Day 3)",[3]; [5],None
same,"Impurity, % (Day 1)","[3]; 50° C., Gelucire 44/14",None
same,"Impurity, % (Day 3)","[3]; 50° C., Gelucire 44/14",None
same,"Impurity, % (Day 1)","[3]; 50° C., Kolliphor EL",None
same,"Impurity, % (Day 3)","[3]; 50° C., Kolliphor EL",None
same,"Impurity, % (Day 1)","[3]; 50° C., Kolliphor HS-15",None
same,"Impurity, % (Day 3)","[3]; 50° C., Kolliphor HS-15",None
same,"Impurity, % (Day 1)","[3]; 50° C., Labrasol",None
same,"Impurity, % (Day 3)","[3]; 50° C., Labrasol",None
same,"Impurity, % (Day 1)","[3]; 50° C., PEG 400",None
same,"Impurity, % (Day 1)","[3]; 50° C., Propylene glycol",None
same,"Impurity, % (Day 3)","[3]; 50° C., Propylene glycol",None
same,"Impurity, % (Day 1)","[3]; 50° C., Transcutol",None
same,"Impurity, % (Day 3)","[3]; 50° C., Transcutol",None
same,"Impurity, % (Day 1)","[3]; 50° C., Vitamin E TPGS",None
same,"Impurity, % (Day 3)","[3]; 50° C., Vitamin E TPGS",None
same,impurities after incubation in excipients,"[3]; PEG400, propylene glycol, Vitamin E TPGS, Gelucire 44/14, hydrogenated castor oil, Capmul MCM, Kolliphor HS 15, Kolliphor EL, Labrasol, Transcutol HP, 4 or 7 days, room temperature or 50° C., HPLC",No impurities were observed
same,"Impurity, % (Day 1)",[3]; [6],None
same,"Impurity, % (Day 3)",[3]; [6],None
same,"Impurity, % (Day 1)",[3]; [7],None
same,"Impurity, % (Day 3)",[3]; [7],None
same,"Impurity, % (Day 1)",[3]; [8],None
same,"Impurity, % (Day 3)",[3]; [8],None
same,"Impurity, % (Day 1)",[3]; [9],None
same,"Impurity, % (Day 3)",[3]; [9],None
same,"Impurity, % (Day 1)","[3]; Room Temperature, Kolliphor EL",None
same,"Impurity, % (Day 3)","[3]; Room Temperature, Kolliphor EL",None
same,"Impurity, % (Day 1)",[3]; [10],None
same,"Impurity, % (Day 3)",[3]; [10],None
same,"Impurity, % (Day 1)","[3]; Room Temperature, Labrasol",None
same,"Impurity, % (Day 3)","[3]; Room Temperature, Labrasol",None
same,"Impurity, % (Day 1)","[3]; Room Temperature, PEG 400",None
same,"Impurity, % (Day 1)",[3]; [11],None
same,"Impurity, % (Day 3)",[3]; [11],None
same,"Impurity, % (Day 1)","[3]; Room Temperature, Transcutol",None
same,"Impurity, % (Day 3)","[3]; Room Temperature, Transcutol",None
same,"Impurity, % (Day 1)",[3]; [12],None
same,"Impurity, % (Day 3)",[3]; [12],None
same,critical water concentration for phase interconversion between Pattern C and D,[4],50%
